Data as given in patent US20260250318A1, “COMPOSITIONS AND METHODS FOR CROSSING THE BLOOD BRAIN BARRIER” (VOYAGER THERAPEUTICS, INC., priority 2022, published 2026).

Test system: brain
Test: Maturation of TTM-001 capsid, NGS enrichment in brain of CD-1 Outbred mice
Format: in vivo
Conditions: NGS fold-enrichment of TTM-001 matured AAV capsid variants in the brain of CD-1 Outbred mice; intravenous 1.0×10^12 VG/dose; 14 days in life; RNA; relative to non-matured TTM-001 control
How it was run: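 Pooled matured TTM-001 or TTM-002 capsid libraries (loop IV region randomized by triple-codon or low-frequency point mutagenesis) dosed IV via tail vein at 1.0×10^12 VG/dose to three female CD-1 mice. Brain RNA taken after 14 days; RT-PCR and NGS gave fold enrichment versus parent TTM-001 or TTM-002 control.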

Sequence	Fold enrichment over TTM-001 [fold]
KTINGRPSPHVKAQNQQT	2.419
KTINGSGSPHSKAQHSRT	3.227
KTSRCSGSPHSKAQNQQT	2.345
KTINGSGSPHSRRQNQQT	2.166
KTINGSGSPHSKAQGFRT	2.279
KTINGLRSPHSKAQNQQT	2.238
KTINGSGSPHSKAQFLRT	2.156
KTINGSGSPHSFVVNQQT	2.335
KTINGSGSPHSKLRLQQT	2.065
KTINGSGSPHSKAQFVRT	2.596
KTINGSGSPHSKARANQT	2.300
KTINGSGSPHSKARSRQT	2.972
KTINGSGSPHSRKQNQQT	2.162
KTINGSGSPHSKSRRQQT	4.175
KTINGSGSPHSKPVRQQT	2.529
KTINGSGSPHSKAQFVLT	2.006
KTINGSGSPHSKRTFQQT	3.879
KTINGSGSPHSKAQNAKL	2.486
KTINGSGSPHSKRSIQQT	2.063
KTINGSGSPHTKWQNQQT	2.222
KTINGSGSPHSKVIRQQT	2.760
KTINGSGSPHSKSCAQQT	2.348
KELVGSGSPHSKAQNQQT	2.019
KTINGSGSPHSLRRNQQT	4.985
KTINGSGSPHSKAWYPQT	2.406
KTINGSGSPHSKNVRQQT	2.123
